This note sets out measurements from US11155567B2, “Sting agonist compounds and methods of use” (Mersana Therapeutics, Inc., priority 2019, dated 2021).

For this assay, the target named is T1, Human STING (Homo sapiens, UniProt Q86WV6, G230A/H232R/R293Q/R71H).
T1 construct: host or cells: THP1-Dual cells, digitonin-permeabilized
Nature of the assay: Activation of human STING signaling in permeabilized THP1 cells, IRF3 induction. The settings on record: THP1-Dual cells permeabilized with digitonin buffer 30 minutes on ice, then 24 h in RPMI media. It counts as cell-based. On the procedure:
To evaluate IRF3 reporter levels, cell culture supernatant (20 μl) from each incubated sample was added to QUANTI-Luc™ assay solution (Invivogen, 50 μl), and the luminescence was measured with a SpectraMax M3 spectrophotometer (Molecular Devices).
4×10^5 THP1-Dual™ cells (NF-κB-SEAP and IRF-Lucia luciferase Reporter Monocytes, Invivogen) were incubated with test Compounds in a 5-fold titration steps from […] in permeabilized buffer (50 mM HEPES pH 7.0, 100 mM KCl, 3 mM MgCl2, 85 mM sucrose, 0.2% BSA, 1 mM ATP, 0.1 mM GTP, 0.1 mM TTP, 1 μg/ml digitonin) for 30 minutes on ice. Cells were then washed and incubated in a fresh RPMI media with 10% FBS at 37° C. with 5% CO2 for 24 h. Cell culture supernatants from each sample were collected and NFkB and IRF3 were evaluated as above. Table 3 provides the results for IRF3 induction (“A” means <1 μM; “B” means ≥1 μM and <50 μM; “C” means ≥50 μM).

Where only a bound is given, the exact number is not on record here.

T1 sequence (Q86WV6 whole entry R71H/G230A/H232R/R293Q): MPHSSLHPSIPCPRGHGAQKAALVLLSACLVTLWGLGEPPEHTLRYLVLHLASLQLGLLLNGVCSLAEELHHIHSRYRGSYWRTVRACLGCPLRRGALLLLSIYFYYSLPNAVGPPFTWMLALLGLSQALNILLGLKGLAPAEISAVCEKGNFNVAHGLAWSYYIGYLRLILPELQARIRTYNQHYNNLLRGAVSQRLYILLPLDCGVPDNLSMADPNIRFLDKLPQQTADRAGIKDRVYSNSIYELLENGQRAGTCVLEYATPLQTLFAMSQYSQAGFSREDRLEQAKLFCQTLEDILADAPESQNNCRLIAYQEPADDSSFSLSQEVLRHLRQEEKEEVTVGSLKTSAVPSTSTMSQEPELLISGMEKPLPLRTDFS

Regarding `CCc1nc(C)oc1C(=O)Nc1nc2cc(C(N)=O)cc(OCCCO)c2n1C/C=C/Cn1c(NC(=O)c2cc(C)nn2CC)nc2cc(C(N)=O)cnc21` [Compound 111], the EC50 is under 1 µM. In the case of `CCn1nc(C)cc1C(=O)Nc1nc2cc(C(N)=O)cnc2n1C/C=C/Cn1c(NC(=O)c2cc(C)nn2CC)nc2cc(C(N)=O)cc(OCCCC(=O)O)c21` [Compound 112], the EC50 is under 1 µM. The compound `CCn1nc(C)cc1C(=O)Nc1nc2cc(C(N)=O)cnc2n1C/C=C/Cn1c(NC(=O)c2oc(C)nc2C)nc2cc(C(N)=O)cc(OCCCO)c21` [Compound 113] yielded an EC50 of 1 to 50 µM. Consider `CCn1nc(C)cc1C(=O)Nc1nc2cccnc2n1C/C=C/Cn1c(NC(=O)c2cc(C)nn2CC)nc2cc(C(N)=O)cc(OCCCO)c21` [Compound 114], for which the EC50 lay within 1 to 50 µM. As for `CCn1nc(C)cc1C(=O)/N=c1\sc2cc(C(=O)OC)cc(OC)c2n1C/C=C/Cn1c(NC(=O)c2cc(C)nn2CC)nc2cc(C(N)=O)cc(OCCCO)c21` [Compound 115], the EC50 was under 1 µM.

The compound `CCn1nc(C)cc1C(=O)Nc1nc2cc(CN)cnc2n1C/C=C/Cn1c(NC(=O)c2cc(C)nn2CC)nc2cc(C(N)=O)cc(OCCCO)c21` [Compound 122] registered an EC50 of under 1 µM.

`CCn1nc(C)cc1C(=O)Nc1nc2cc(C(=O)OC)cnc2n1C/C=C/Cn1c(NC(=O)c2cc(C)nn2CC)nc2cc(C(N)=O)cc(OCCCO)c21` [Compound 123] displayed an EC50 of under 1 µM. With `CCn1nc(C)cc1C(=O)Nc1nc2cc(CN(C)C)cnc2n1C/C=C/Cn1c(NC(=O)c2cc(C)nn2CC)nc2cc(C(N)=O)cc(OCCCO)c21` [Compound 125] the figure was under 1 µM; with `CCn1nc(C)cc1C(=O)Nc1nc2cc(CNC(C)=O)cnc2n1C/C=C/Cn1c(NC(=O)c2cc(C)nn2CC)nc2cc(C(N)=O)cc(OCCCO)c21` [Compound 126], under 1 µM. `CCc1nc(C)oc1C(=O)Nc1nc2cc(CN)cc(OC)c2n1C/C=C/Cn1c(NC(=O)c2oc(C)nc2CC)nc2cc(C(N)=O)cc(OCCCO)c21` [Compound 128] returned an EC50 of under 1 µM. `CCn1nc(C)cc1C(=O)Nc1nc2cc(CN)cnc2n1C/C=C/Cn1c(NC(=O)c2cc(C)nn2CC)nc2cc(C(N)=O)cc(OC)c21` [Compound 129] had an EC50 of 1 to 50 µM. The compound `CCc1nc(C)oc1C(=O)Nc1nc2cc(CNC(C)=O)cc(OC)c2n1C/C=C/Cn1c(NC(=O)c2oc(C)nc2CC)nc2cc(C(N)=O)cc(OCCCO)c21` [Compound 130] returned an EC50 of 1 to 50 µM. As for `CCc1nc(C)oc1C(=O)Nc1nc2cc(NC(C)=O)cc(OC)c2n1C/C=C/Cn1c(NC(=O)c2oc(C)nc2CC)nc2cc(C(N)=O)cc(OCCCO)c21` [Compound 131], the EC50 lay in the range of 1 to 50 µM. Then `CCn1nc(C)cc1C(=O)Nc1nc2cc(CN(C)C)cnc2n1C/C=C/Cn1c(NC(=O)c2cc(C)nn2CC)nc2cc(C(N)=O)cc(OC)c21` [Compound 132], with 1 to 50 µM. Consider `CCc1nc(C)oc1C(=O)Nc1nc2cc(CN(C)C)cc(OC)c2n1C/C=C/Cn1c(NC(=O)c2oc(C)nc2CC)nc2cc(C(N)=O)cc(OCCCO)c21` [Compound 133], for which the EC50 lay within 1 to 50 µM. Then `CCn1nc(C)cc1C(=O)Nc1nc2cc(N)cnc2n1C/C=C/Cn1c(NC(=O)c2cc(C)nn2CC)nc2cc(C(N)=O)cc(OC)c21` [Compound 134], with under 1 µM; and `CCc1nc(C)oc1C(=O)Nc1nc2cc(N)cc(OC)c2n1C/C=C/Cn1c(NC(=O)c2oc(C)nc2CC)nc2cc(C(N)=O)cc(OCCCO)c21` [Compound 135], with 1 to 50 µM. With `CCc1nc(C)oc1C(=O)Nc1nc2cc(C(N)=O)cc(OC)c2n1C/C=C/Cn1c(NC(=O)c2cnc(C)o2)nc2cc(C(N)=O)cc(OCCCO)c21` [Compound 136] the figure was at least 50 µM; with `CCn1nc(C)cc1C(=O)Nc1nc2cc(CNC(C)=O)cnc2n1C/C=C/Cn1c(NC(=O)c2cc(C)nn2CC)nc2cc(C(N)=O)cc(OC)c21` [Compound 137], at least 50 µM. In turn, `CCc1nc(C)oc1C(=O)Nc1nc2cc(C(N)=O)cc(OC)c2n1C/C=C/Cn1c(NC(=O)c2cnco2)nc2cc(C(N)=O)cc(OCCCO)c21` [Compound 138] yielded an EC50 of at least 50 µM. Compound `CCc1nc(C)oc1C(=O)Nc1nc2cc(C(N)=O)cc(O)c2n1C/C=C/Cn1c(NC(=O)c2oc(C)nc2CC)nc2cc(C(N)=O)cc(O)c21` [Compound 139] showed an EC50 of at least 50 µM. Turning to `CCn1nc(C)cc1C(=O)/N=c1\sc2cc(C(N)=O)cnc2n1C/C=C/Cn1c(NC(=O)c2cc(C)nn2CC)nc2cc(C(N)=O)cc(OCCCC(=O)O)c21` [Compound 140], the EC50 was under 1 µM.

The compound `CCc1nc(C)sc1C(=O)Nc1nc2cc(C(N)=O)cc(OC)c2n1C/C=C/Cn1c(NC(=O)c2sc(C)nc2CC)nc2cc(C(N)=O)cc(OCCCC(=O)O)c21` [Compound 141] yielded an EC50 of 1 to 50 µM.

For `CCc1nc(C)oc1C(=O)/N=c1\sc2cc(C(N)=O)cnc2n1C/C=C/Cn1c(NC(=O)c2sc(C)nc2CC)nc2cc(C(N)=O)cc(OCCCO)c21` [Compound 142], the EC50 was under 1 µM. As to `CCc1nc(C)oc1C(=O)Nc1nc2cc(C(N)=O)cnc2n1C/C=C/Cn1c(NC(=O)c2sc(C)nc2CC)nc2cc(C(N)=O)cc(OCCCO)c21` [Compound 143], the EC50 is under 1 µM. For the compound `CCc1nc(C)sc1C(=O)Nc1nc2cc(C(N)=O)cnc2n1C/C=C/Cn1c(NC(=O)c2sc(C)nc2CC)nc2cc(C(N)=O)cc(OCCCO)c21` [Compound 144], the EC50 is at least 50 µM. `CCc1nc(C)sc1C(=O)/N=c1\sc2cc(C(N)=O)cnc2n1C/C=C/Cn1c(NC(=O)c2sc(C)nc2CC)nc2cc(C(N)=O)cc(OCCCO)c21` [Compound 145] returned an EC50 of at least 50 µM. The compound `CCn1nc(C)cc1C(=O)/N=c1\sc2cc(C(N)=O)cc(OCCCO)c2n1C/C=C/Cn1c(NC(=O)c2cc(C)nn2CC)nc2cc(C(N)=O)cnc21` [Compound 147] showed an EC50 of 1 to 50 µM. With `CCc1nc(C)oc1C(=O)Nc1nc2cc(C(N)=O)cc(OC)c2n1C/C=C/Cn1c(NC(=O)c2sc(C)nc2CC)nc2cc(C(N)=O)cc(OCCCC(=O)O)c21` [Compound 149] the figure was under 1 µM; with `CCc1nc(C)oc1C(=O)Nc1nc2cc(C(N)=O)cc(OCCCC(=O)O)c2n1C/C=C/Cn1/c(=N/C(=O)c2cc(C)nn2CC)sc2cc(C(N)=O)cc(OC)c21` [Compound 150], under 1 µM. For the compound `CCc1nc(C)oc1C(=O)Nc1nc2cc(C(N)=O)cnc2n1C/C=C/Cn1c(NC(=O)c2sc(C)nc2CC)nc2cc(C(N)=O)cc(OCCCC(=O)O)c21` [Compound 151], the EC50 was under 1 µM. Turning to `CCc1nc(C)oc1C(=O)/N=c1\sc2cc(C(N)=O)cnc2n1C/C=C/Cn1c(NC(=O)c2oc(C)nc2CC)nc2cc(C(N)=O)cc(OCCCC(=O)O)c21` [Compound 155], the EC50 was under 1 µM. `CCc1nc(C)sc1C(=O)Nc1nc2cc(C(N)=O)cc(OC)c2n1C/C=C/Cn1c(NC(=O)c2sc(C)nc2CC)nc2cc(C(N)=O)cc(OCCCO)c21` [compound 10] showed an EC50 of under 1 µM.

Take `CCc1nn(C)cc1C(=O)Nc1nc2cc(C(N)=O)cc(OC)c2n1C/C=C/Cn1c(NC(=O)c2cn(C)nc2CC)nc2cc(C(N)=O)cc(OCCCO)c21` [compound 11]: the EC50 was in the range of 1 to 50 µM. `COc1cc(C(N)=O)cc2nc(NC(=O)c3cc(C)no3)n(C/C=C/Cn3c(NC(=O)c4cc(C)no4)nc4cc(C(N)=O)cc(OCCCO)c43)c12` [compound 12] returned an EC50 of 1 to 50 µM.

The compound `COc1cc(C(N)=O)cc2nc(NC(=O)c3nc(C)oc3C)n(C/C=C/Cn3c(NC(=O)c4nc(C)oc4C)nc4cc(C(N)=O)cc(OCCCO)c43)c12` [compound 13] had an EC50 of at least 50 µM. With `COc1cc(C(N)=O)cc2nc(NC(=O)c3cc4ncccc4o3)n(C/C=C/Cn3c(NC(=O)c4cc5ncccc5o4)nc4cc(C(N)=O)cc(OCCCO)c43)c12` [compound 14] the figure was at least 50 µM; with `COc1cc(C(N)=O)cc2nc(NC(=O)c3nccn3C(C)C)n(C/C=C/Cn3c(NC(=O)c4nccn4C(C)C)nc4cc(C(N)=O)cc(OCCCO)c43)c12` [compound 15], at least 50 µM.

As to `COc1cc(C(N)=O)cc2nc(NC(=O)c3cnc(C)n3C)n(C/C=C/Cn3c(NC(=O)c4cnc(C)n4C)nc4cc(C(N)=O)cc(OCCCO)c43)c12` [compound 16], the EC50 was at least 50 µM.

`COc1cc(C(N)=O)cc2nc(NC(=O)c3cnc(C(F)(F)F)s3)n(C/C=C/Cn3c(NC(=O)c4cnc(C(F)(F)F)s4)nc4cc(C(N)=O)cc(OCCCO)c43)c12` [compound 17] came in with an EC50 of at least 50 µM. For the compound `CCc1nc(C)oc1C(=O)Nc1nc2cc(C(N)=O)cc(OC)c2n1C/C=C/Cn1c(NC(=O)c2oc(C)nc2CC)nc2cc(C(N)=O)cc(OCCCC(=O)O)c21` [compound 19], the EC50 was under 1 µM. Take `Cc1cc(C(=O)Nc2nc3cc(C(N)=O)ccc3n2C/C=C/Cn2c(NC(=O)c3cc(C)on3)nc3cc(C(N)=O)cc(OCCCO)c32)no1` [compound 26]: the EC50 was under 1 µM. The compound `Cn1nncc1C(=O)Nc1nc2cc(C(N)=O)ccc2n1C/C=C/Cn1c(NC(=O)c2cnnn2C)nc2cc(C(N)=O)cc(OCCCO)c21` [compound 27] gave an EC50 of at least 50 µM. Then `NC(=O)c1ccc2c(c1)nc(NC(=O)c1cocn1)n2C/C=C/Cn1c(NC(=O)c2cocn2)nc2cc(C(N)=O)cc(OCCCO)c21` [compound 28], with at least 50 µM. `CCc1nc(C)oc1C(=O)Nc1nc2cc(C(N)=O)cc(OCCCO)c2n1C/C=C/Cn1c(NC(=O)c2cc(C)nn2CC)nc2cc(C(N)=O)cc(OC)c21` [compound 36] yielded an EC50 of under 1 µM. `CCc1nc(C)oc1C(=O)Nc1nc2cc(C(N)=O)cc(OCCCO)c2n1C/C=C/Cn1c(NC(=O)c2sc(C)nc2CC)nc2cc(C(N)=O)cc(OC)c21` [compound 37] had an EC50 of under 1 µM.

Usually EC50 stands for the midpoint of the concentration-response curve. Read a low EC50 as greater potency.
